The test system of one series is human HSP70 promoter. The series can be described thus: Activation of cellular heat shock response (HeLa hse-luc luciferase reporter). To be noted: 8 h. The series is classed as cell-based. The protocol:
FIG. 6. Arylsulfanyl pyrazolones fail to induce heat shock response in Hsp 70 promoter assays. HeLa hse-luc cells were treated with arylsulfanyl pyrazolones (1 μM-100 μM), celestrol (1 μM-5 μM), or CdCl2 (10 μM-100 μM), for 8 h and activation of the heat shock response determined by HSP70 promoter activity.
Mechanism of action studies have been initiated for provided compounds. provided compounds active in the cytotoxicity protection assay were initially assayed for the ability to prevent SOD1 aggregation using manual, low-throughput methods. […] The ability of provided compounds to induce expression of molecular chaperones was also tested using stably-transfected HeLa cells (HeLa hse-luc) expressing a luciferase reporter gene under the control of the human HSP70 promoter. This HeLa hse-luc reporter system was used previously to identify small-molecule activators of the heat shock response (Westerheide et al. J. Biol. Chem. 2004, 279(53), 56053-56060).
HeLa cells, stably transfected with a luciferase reporter plasmid under control of the HSP70 promoter, were plated in a 96 well plate at a density of 7500 cells/100 μl. […] Cells were lysed by the addition of 100 μl BrightGlo reagent (Promega) according to manufacturer's instructions and luciferase activity measured by quantifying luminescence signal. […]
On the technique in general: Reporter assays use an easily measured gene product as a stand-in for the process of interest.

The subject of another series is Caco-2. The series can be described thus: In vitro Caco-2 permeability. Type of series: in vitro ADME. The protocol: General Permeability: High membrane permeability is required for effective GI absorption and optimal bioavailability. Passive permeability is typically assessed in the PAMPA artificial membrane assay (Kansy et al., J. Med. Chem. 2002, 45(8), 1712-1722). Cell-based permeability determinations using the Caco-2 cell assay are more resource intensive but more predictive of active transport or efflux in vivo (Artursson et al., Adv. Drug. Deliv. Rev. 2001, 46(1-3), 27-43). Caco-2 assays are performed as needed during SAR development.

Series [1] can be described thus: In vitro microsomal stability, human. The series is classed as in vitro ADME. To be noted: Human. The method, then:
(§1) Metabolism (microsome, S9 fraction, CYP450): Liver Cytochrome P450 (CYP450) enzymes are the major route for xenobiotic metabolism and microsomal and hepatocyte stability is the best predictor of pharmacokinetic half-life. Cross-species comparisons of metabolism in liver microsomes can predict potential issues with liver toxicity in humans. Selected active compounds are tested in liver microsomes from efficacy species (mouse), toxicity species (rat, dog, monkey), and humans for metabolic stability.
(§2) CMB-087229 was sent for an evaluation of its in vitro ADME properties.
(§3) Two possible amines, secondary and tertiary AAP analogues, were initially screened in the protection assay (FIG. 30) and for in vitro microsomal stability (Table 1) and Caco-2 permeability (Table 2). […] The solubilities of 2 and 3 were good in aqueous media (≧150 μM), and no precipitation occurred at the highest concentration. The in vitro plasma half-life for both compounds was >60 min.

A further series relates to cortical neurons. In words: Cortical neuron assay. The series is classed as cell-based. To be noted: 10 μM. The method, then: Selected compounds were tested with cortical neurons—a useful preliminary step prior to the expensive and time-consuming ALS mouse model studies. Although long linker compound 24 and cyclic linker compound 27 are active in the PC12 assay, they are not active with cortical neurons. Compound 3 gave better results than the ether counterpart (1), recovering 100% neuronal activity at 10 μM concentration.

Series [2] is described as follows: In vitro microsomal stability, mouse. The series is classed as in vitro ADME. To be noted: Mouse. The protocol: as §1, §2, §3
Series [3] can be described thus: In vitro plasma stability. Type of series: in vitro ADME. The method, then:
Plasma stability: Plasma stability of active compounds is assessed in efficacy species (mouse), toxicity species (rat, dog, monkey), and human cells.

A further series is described as follows: Aqueous solubility. Type of series: physicochemical. To be noted: no precipitation at the highest concentration. The protocol:
Solubility: Because compounds are stored in DMSO, it is necessary to determine aqueous solubility of initial hit compounds and their analogs. High solubility in aqueous solution is necessary for high GI absorption, bioavailability, and for chemical formulation. Compounds should be soluble in aqueous solution at >10 μg/ml. Solubility of >50 μg/ml is preferred.

In series [4] the test system is PC12 cells expressing G93A mutant SOD1. The series can be described thus: Mutant SOD1 protein aggregation. Type of series: cell-based. The protocol: (§4) In PC12 cells that express wild-type SOD1, SOD1 was diffusely localized throughout the cell (Matsumoto et al., J. Cell. Biol. 2005, 171(1), 75-85). […] Therefore, these effects are likely to be due to MG132-induced proteasome inhibition, and not due to an off-target effect of MG132.
The identification of a positive control is a crucial step in assay development. Thus, PC12 cells expressing G85R or G93A mutant SOD1 were treated with MG132 to induce protein aggregation, and then co-treated with candidate chemical suppressors of protein aggregation. Two compounds with similar activity were identified in these experiments: geldanamycin and radicicol. Both compounds induce heat shock transcription factor […], which in turn induces the heat shock response (FIG. 4).
Mechanism of action studies have been initiated for provided compounds. provided compounds active in the cytotoxicity protection assay were initially assayed for the ability to prevent SOD1 aggregation using manual, low-throughput methods. […] The ability of provided compounds to induce expression of molecular chaperones was also tested using stably-transfected HeLa cells (HeLa hse-luc) expressing a luciferase reporter gene under the control of the human HSP70 promoter. […]

The test system of series [5] is PC12 cells expressing wild-type SOD1. The series can be described thus: SOD1 protein aggregation, wild type control line. Type of series: cell-based. To be noted: cells treated with MG132. The protocol:
FIGS. 3A-F. Mutant but not wild type SOD1 aggregates in cells treated with the proteasome inhibitor MG132. Fluorescence micrographs of PC12 cells expressing YFP tagged wild type (WT), G93A mutant (G93A), and G85R mutant (G85R)SOD1 proteins (3A-C). The micrographs show the effects of treating cells with 200 nM MG132 for 24 hours (untreated cells are shown in insets on left, 3D-F, respectively). The wild type SOD1 expressing cells are unaffected while cells expressing mutant SOD1 show large perinuclear aggregates.
as §4

The test system of series [6] is PC12 cells expressing no SOD1, wild type SOD1 and G85R SOD1. The series can be described thus: Sensitivity of PC12 cells to proteasome inhibitor, calcein-AM viability. Type of series: cell-based. The protocol:
(§5) FIGS. 1A-C. […] Cell survival was determined using the viability stain calcein-AM.

Series [7] has as its system PC12 cells expressing G93A SOD1. Described as above. Type of series: cell-based. The method, then: as §5
Series [8] deals with PC12 cells expressing G85R SOD1. In words: Mutant SOD1 protein aggregation assay. The series is classed as cell-based.
Source text: Compounds that are active in the above assay could theoretically protect against mutant SOD1-induced cytotoxicity through a number of mechanisms, including the following: 1) compounds could nonspecifically block or reverse protein aggregation via chaperone induction, as observed for radicicol and geldanamycin; 2) compounds could block or reverse the aggregation of a specific aggregated protein form; 3) compounds could interfere with an event downstream of protein aggregation that plays a critical role in mutant SOD1-induced cytotoxicity (e.g., proteasome function); and 4) compounds could act directly on SOD1 in a manner that prevents mutant SOD1 aggregation. These possibilities were tested using an assay that directly measures protein aggregation. In addition, unlike the high throughput cytotoxicity protection assay, the protein aggregation assay is based on G85R SOD1; this broadens the scope of the screening strategy, and should eliminate compounds with highly specific activity (i.e., G93A SOD1 limited) against protein aggregation.
as §4
The identification of a positive control is a crucial step in assay development. Thus, PC12 cells expressing G85R or G93A mutant SOD1 were treated with MG132 to induce protein aggregation, and then co-treated with candidate chemical suppressors of protein aggregation. […]
To allow this assay to be used in a high-throughput manner, a Cellomics Arrayscan® high content microscopy system was used for screening and quantification. […]
Arrayscan images were recorded using a 20× objective and the XF93-TRITC filter set in channel 1 for the Image-iT WGA plasma membrane dye or the XF93-FITC filter set for SOD1-YFP and analyzed using Cellomics spot detector software. […] Data were recorded as spot count (aggregate)/object (cell).

Series [9] has as its system proteasome activity (Ubi-YFP degradation). In words: Proteasome activity assay (Ubi-YFP in HeLa cells). To be noted: 1 μM. The series is classed as cell-based. The protocol: FIG. 7. Arylsulfanyl pyrazolones prevent MG132-induced accumulation of Ubi-YFP. HeLa cells were co-transfected with Ubi-YFP and CMV-CFP plasmids, treated with 1 μM MG132 and 25 μM arylsulfanyl pyrazolones and Ubi-YFP fluorescence intensity normalized to CFP.
Since the CMB-003299 cytotoxicity of SOD1 protein aggregates may involve inhibition of proteasome activity, compounds that stimulate proteasome activity could reverse or prevent mutant SOD1-induced cytotoxicity. Thus, active compounds were tested for the ability to stimulate proteasome activity using a cell line expressing ubiquitin-conjugated YFP [Ubi-YFP 74]. In these cells, increased proteasome activity causes increased degradation of Ubi-YFP and decreased YFP fluorescence. Conversely, compounds that inhibit proteasome activity increase accumulation of Ubi-YFP and enhanced YFP fluorescence. As expected, MG132 augments YFP fluorescence intensity ˜3-fold compared to untreated controls (FIG. 7). […] Protein aggregates are present in the absence of MG132 and aggregation is suppressed following treatment with a provided compound.
HeLa cells (20,000/chamber) were plated on 8 chambered Tissue-tek coverglass pretreated with 1 mg/ml poly-D-lysine and allowed to adhere for 18 h at 37° C./5% CO2. Cells were transfected with 0.2 μg each CMV-CFP and Ubi-YFP plasmids using Lipofectamine 2000 according to manufacturer's instructions. Cells were allowed to express CFP and Ubi-YFP for 18 h followed by a 6 h incubation with test compounds (25 μM). MG132 (1 μM) was added for a final 18 h incubation and Ubi-YFP degradation assessed by fluorescence microscopy. Fluorescence intensity of CFP and YFP was calculated on a cell-by-cell basis from captured images using AxioVision software (Zeiss). YFP fluorescence was normalized to CFP fluorescence.

Series [10] concerns PC12 cells that express mutant G93A SOD1. In words: Mutant SOD1-induced cytotoxicity protection assay. To be noted: rat, 48 h. The protocol: This idea was tested by examining the sensitivity of PC12 cells to SOD1 aggregates in the presence and absence of proteasome inhibitor MG132. PC12 cells expressing no SOD1, wild type SOD1, G85R SOD1 or G93A SOD1 were grown with or without MG132 (FIG. 1).
PC12 cells expressing G93A SOD1 were treated with 100 nM MG132 with or without co-treatment with geldanamycin or radicicol.

Where a SMILES comes first, the peptide text is derived from it. The star is where a group is joined. Cbz = O=C(OCc1ccccc1)*

`[Cl][Cd][Cl]` [CdCl2]: the “luciferase activity (HSP70 promoter)” value in the series with human HSP70 promoter is “strongly induced luciferase activity”.

In the case of `CN(Cc1cc(=O)[nH][nH]1)c1cc(Cl)cc(Cl)c1` [Compound 3, 5-(((3,5-Dichlorophenyl)(methyl)amino)methyl)-1H-pyrazol-3(2H)-one], the “Efflux ratio (B→A)/(A→B)” value in the series with Caco-2 is 3.5. In the series with Caco-2, the “Papp (A→B)” value is given as 2.2 10^−6 cm/s. The “Papp (B→A)” value in the series on Caco-2 is on record as 7.6 10^−6 cm/s. For the same molecule, the T1/2 in series [1] (NADPH-absent) was more than 3 h; in series [1] (NADPH-dependent), more than 3 h; in series [2] (NADPH-absent) it was more than 3 h; in series [2] (NADPH-dependent), 0.417 h. This molecule came in with a neuronal activity recovered with cortical neurons of 100%. Further, the microsomal CLint (commonly a measure of how fast metabolising enzymes remove a compound, apart from limits set by blood flow) in [2] (mouse, liver microsomes, NADPH-dependent, read-out: CLint (microsomal intrinsic clearance)) was 93 µL/min/mg. Also, in series [3], the “in vitro plasma half-life” value was more than 1 h. The “solubility in aqueous media” value in “Aqueous solubility” is not below 150 µM.

Consider `CC(C)C[C@@H](C=O)NC(=O)[C@H](CC(C)C)NC(=O)[C@H](CC(C)C)NC(=O)OCc1ccccc1` [MG132] (Cbz-Leu-Leu-Leu-aldehyde), for which the “cells with protein aggregates” value in series [4] (following treatment with MG132) is listed as approximately 75%. Moreover, the “aggregation, in words” value in series [5] is “no aggregation was observed”. Also, the “toxicity, in words” value in series [6] (100 nM, 24 hours, any of the cell lines) is “no toxicity”; in series [7] (100 nM, 48 hours), “selectively toxic”. The IC50 (in general, the concentration that gives 50% inhibition) is approximately 0.4 µM in series [6] (Rattus norvegicus, PC-12, cells expressing no SOD1, wild type SOD1 and G85R SOD1, read-out: IC50 of proteasome inhibitor on cell viability); approximately 0.075 µM in series [7] (Rattus norvegicus, PC-12, read-out: IC50 of proteasome inhibitor on cell viability). In series [7], the “sensitivity of G93A SOD1 cells relative to the other lines” value was “approximately 5 fold”. For the same molecule, in series [8] (cells treated with MG132), the “cells containing protein aggregates” value is reported as “up to 75%”. In [9], the “YFP fluorescence intensity compared to untreated controls” value is listed as approximately 3 fold.

`C[C@@H]1C[C@H]2O[C@@H]2/C=C\C=C\C(=O)Cc2c(Cl)c(O)cc(O)c2C(=O)O1` [Radicicol, reference compound]: the “effect on protein aggregation, in words” value in series [4] (MG132-treated cells) is listed as “reduced formation of protein aggregates”; in [8] (MG132-induced aggregation), “decreases mutant SOD1 aggregation”. The “proportion of cells with aggregates” value in [8] (G85R or G93A mutant SOD1 cells, MG132 plus co-treatment, 75% without) was found to be 25%. In [10], the “efficacy (maximum viability at optimum dosage)” value worked out at 80%.

For `CC1=C(O)C(=O)C=C2C1=CC=C1[C@@]2(C)CC[C@@]2(C)[C@@H]3C[C@](C)(C(=O)O)CC[C@]3(C)CC[C@]12C` [celastrol, celestrol], the “luciferase activity (HSP70 promoter)” value with human HSP70 promoter is recorded as “strongly induced luciferase activity”.

Source of the values: patent publication US9145424B2, “Treatment of amyotrophic lateral sclerosis” (Northwestern University, priority 2008, dated 2015).
